Measurements published in patent US20240197759A1, “IMMUNE STIMULATING NANOPARTICLE COMPOSITION” (DANMARKS TEKNISKE UNIVERSITET, priority 2021, published 2024).

System: CT26 syngenic subcutaneous colon cancer model
Test: Antitumor activity of MBS8 micelles in combination with doxorubicin or doxil in the CT26 model
Type: in vivo, mice
Conditions: mono chemotherapy 4 mg/kg i.v. q4d x3
Method: Randomisation of mice and treatment started when tumors reached an average volume of 100 mm^3 (Day 0). […] All drugs were administered by intravenous bolus. Doxorubicin or doxil were given q4d, total of 3 injections. […] Growth of tumors was measured twice a week.

SMILES: COc1cccc2c1C(=O)c1c(O)c3c(c(O)c1C2=O)C[C@@](O)(C(=O)CO)C[C@@H]3O[C@H]1C[C@H](N)[C@H](O)[C@H](C)O1 [doxorubicin]
- complete responders: no complete responders
